≈ marks a conversion by molar mass, not a printed value.
What was measured:
Type in all cases: functional
Enterococcus = test: Antibacterial activity against vancomycin-resistant Enterococcus assessed as inhibition of bacterial growth by CLSI protocol based method
Staphylococcus aureus [1] = test: Antibacterial activity against methicillin-resistant Staphylococcus aureus assessed as inhibition of bacterial growth by CLSI protocol based method
Staphylococcus aureus [2] = test: Antibacterial activity against Staphylococcus aureus ATCC 29213 assessed as inhibition of bacterial growth by CLSI protocol based method
[3] = system: Staphylococcus epidermidis; test: Antibacterial activity against Staphylococcus epidermidis ATCC 12228 assessed as inhibition of bacterial growth incubated for 18 to 24 hrs by CLSI protocol based Tryptic soy broth method; settings: time 18-24 hrs
Staphylococcus aureus [4] = test: Antibacterial activity against methicillin-resistant Staphylococcus aureus assessed as inhibition of bacterial growth incubated for 18 to 24 hrs by CLSI protocol based Tryptic soy broth method; settings: time 18-24 hrs
Enterococcus faecalis [5] = test: Antibacterial activity against Enterococcus faecalis ATCC 29212 assessed as inhibition of bacterial growth incubated for 18 to 24 hrs by CLSI protocol based Tryptic soy broth method; settings: time 18-24 hrs
Staphylococcus aureus [6] = test: Antibacterial activity against Staphylococcus aureus ATCC 25923 assessed as inhibition of bacterial growth incubated for 18 to 24 hrs by CLSI protocol based Tryptic soy broth method; settings: time 18-24 hrs
Escherichia coli = test: Antibacterial activity against Escherichia coli NCIM 2065 assessed as inhibition of bacterial growth incubated for 24 hrs by serial dilution method
Pseudomonas aeruginosa = test: Antibacterial activity against Pseudomonas aeruginosa NCIM 5210 assessed as inhibition of bacterial growth incubated for 24 hrs by serial dilution method
Enterococcus faecalis [7] = test: Antibacterial activity against Streptococcus faecalis NCIM 2080 assessed as inhibition of bacterial growth incubated for 24 hrs by serial dilution method
Staphylococcus aureus [8] = test: Antibacterial activity against Staphylococcus aureus NCIM 5257 assessed as inhibition of bacterial growth incubated for 24 hrs by serial broth dilution method
Bacillus subtilis = test: Antibacterial activity against Bacillus subtilis NCIM 2097 assessed as inhibition of bacterial growth incubated for 24 hrs by serial broth dilution method
Klebsiella pneumoniae = test: Antibacterial activity against Klebsiella pneumoniae NCIM 5289 assessed as inhibition of bacterial growth incubated for 24 hrs by serial dilution method

SMILES | MIC (Enterococcus) [mg/L] | MIC (Staphylococcus aureus [1]) [mg/L] | MIC (Staphylococcus aureus [2]) [mg/L] | MIC [3] [mg/L] | MIC (Staphylococcus aureus [4]) [mg/L] | MIC (Enterococcus faecalis [5]) [mg/L] | MIC (Staphylococcus aureus [6]) [mg/L] | also measured
CC(=O)NC[C@H]1CN(c2ccc(N3CCN(/N=C/c4ccc([N+](=O)[O-])o4)CC3)c(F)c2)C(=O)O1 | 1 (≈ 2.11 µM) | 1 (≈ 2.11 µM) | 0.25 (≈ 0.527 µM) | – | – | – | – | –
CCCCc1cn(C[C@H]2CN(c3ccc(OCc4nc(C)c(C)nc4C)c(F)c3)C(=O)O2)nn1 | – | – | – | > 128 | > 128 | > 128 | > 128 | –
O=C(/C=C/c1ccc([N+](=O)[O-])cc1)c1ccc(-c2ccc(N3C[C@H](CO)OC3=O)cc2)cc1 | – | – | – | – | – | – | – | MIC (Escherichia coli): 3.12 mg/L (≈ 7.03 µM); MIC (Pseudomonas aeruginosa): 3.12 mg/L (≈ 7.03 µM); MIC (Enterococcus faecalis [7]): 3.12 mg/L (≈ 7.03 µM); MIC (Staphylococcus aureus [8]): 3.12 mg/L (≈ 7.03 µM); MIC (Bacillus subtilis): 3.12 mg/L (≈ 7.03 µM); MIC (Klebsiella pneumoniae): 3.12 mg/L (≈ 7.03 µM)
COCC(=O)NC[C@H]1CN(c2ccc(OCc3nc(C)c(C)nc3C)cc2)C(=O)O1 | – | – | – | 128 (≈ 309 µM) | 64 (≈ 154 µM) | > 128 | > 128 | –
CC(=O)NC[C@H]1CN(c2ccc(N3CCN(/N=C/c4ccc([N+](=O)[O-])s4)CC3)c(F)c2)C(=O)O1 | 2 (≈ 4.08 µM) | 1 (≈ 2.04 µM) | 0.25 (≈ 0.51 µM) | – | – | – | – | –
COc1ccc(/C=C/C(=O)c2ccc(-c3ccc(N4C[C@H](CO)OC4=O)cc3)cc2)cc1 | – | – | – | – | – | – | – | MIC (Escherichia coli): 3.12 mg/L (≈ 7.28 µM); MIC (Pseudomonas aeruginosa): 3.12 mg/L (≈ 7.28 µM); MIC (Enterococcus faecalis [7]): 3.12 mg/L (≈ 7.28 µM); MIC (Staphylococcus aureus [8]): 3.12 mg/L (≈ 7.28 µM); MIC (Bacillus subtilis): 3.12 mg/L (≈ 7.28 µM); MIC (Klebsiella pneumoniae): 3.12 mg/L (≈ 7.28 µM)
CC(=O)NC[C@H]1CN(c2ccc(N3CCOCC3)c(F)c2)C(=O)O1 [LINEZOLID] | 2 (≈ 5.93 µM) | – | – | – | – | – | – | –
CC(=O)NC[C@H]1CN(c2ccc(N3CCN(/N=C/c4ccc([N+](=O)[O-])cc4)CC3)c(F)c2)C(=O)O1 | 4 (≈ 8.26 µM) | 4 (≈ 8.26 µM) | 4 (≈ 8.26 µM) | – | – | – | – | –
CC(=O)NC[C@H]1CN(c2ccc(N3CCN(Cc4ccc([N+](=O)[O-])o4)CC3)c(F)c2)C(=O)O1 [RANBEZOLID] | 2 (≈ 4.33 µM) | 2 (≈ 4.33 µM) | 1 (≈ 2.17 µM) | – | – | – | – | –
O=C(/C=C/c1ccc(O)cc1)c1ccc(-c2ccc(N3C[C@H](CO)OC3=O)cc2)cc1 | – | – | – | – | – | – | – | MIC (Escherichia coli): 3.12 mg/L (≈ 7.52 µM); MIC (Pseudomonas aeruginosa): 3.12 mg/L (≈ 7.52 µM); MIC (Enterococcus faecalis [7]): 3.12 mg/L (≈ 7.52 µM); MIC (Staphylococcus aureus [8]): 3.12 mg/L (≈ 7.52 µM); MIC (Bacillus subtilis): 3.12 mg/L (≈ 7.52 µM); MIC (Klebsiella pneumoniae): 3.12 mg/L (≈ 7.52 µM)
Cc1nc(C)c(COc2ccc(N3C[C@H](CO)OC3=O)cc2F)nc1C | – | – | – | 128 (≈ 354 µM) | 64 (≈ 177 µM) | 64 (≈ 177 µM) | 64 (≈ 177 µM) | –
CC(=O)NC[C@H]1CN(c2ccc(N3CCN(/N=C/c4cccc([N+](=O)[O-])c4)CC3)c(F)c2)C(=O)O1 | 2 (≈ 4.13 µM) | 1 (≈ 2.06 µM) | 2 (≈ 4.13 µM) | – | – | – | – | –
CC(=O)NC[C@H]1CN(c2ccc(N3CCN(/N=C/c4c(Cl)cccc4[N+](=O)[O-])CC3)c(F)c2)C(=O)O1 | 8 (≈ 15.4 µM) | 8 (≈ 15.4 µM) | 8 (≈ 15.4 µM) | – | – | – | – | –
Cc1nc(C)c(COc2ccc(N3C[C@H](CNC(=O)c4ccco4)OC3=O)cc2)nc1C | – | – | – | 64 (≈ 147 µM) | 64 (≈ 147 µM) | > 128 | 128 (≈ 293 µM) | –
CC(=O)NC[C@H]1CN(c2ccc(N3CCN(/N=C/Cn4c([N+](=O)[O-])cnc4C)CC3)c(F)c2)C(=O)O1 | 4 (≈ 7.96 µM) | 1 (≈ 1.99 µM) | 1 (≈ 1.99 µM) | – | – | – | – | –
O=C(/C=C/c1ccc(Cl)cc1)c1ccc(-c2ccc(N3C[C@H](CO)OC3=O)cc2)cc1 | – | – | – | – | – | – | – | MIC (Escherichia coli): 3.12 mg/L (≈ 7.2 µM); MIC (Pseudomonas aeruginosa): 3.12 mg/L (≈ 7.2 µM); MIC (Enterococcus faecalis [7]): 3.12 mg/L (≈ 7.2 µM); MIC (Staphylococcus aureus [8]): 3.12 mg/L (≈ 7.2 µM); MIC (Bacillus subtilis): 3.12 mg/L (≈ 7.2 µM); MIC (Klebsiella pneumoniae): 3.12 mg/L (≈ 7.2 µM)
CC(=O)NC[C@H]1CN(c2ccc(OCc3nc(C)c(C)nc3C)c(F)c2)C(=O)O1 | – | – | – | 4 (≈ 9.94 µM) | 4 (≈ 9.94 µM) | 16 (≈ 39.8 µM) | 8 (≈ 19.9 µM) | –
Cc1nc(C)c(COc2ccc(N3C[C@H](CNC(=O)C(Cl)Cl)OC3=O)cc2F)nc1C | – | – | – | 4 (≈ 8.49 µM) | 2 (≈ 4.24 µM) | 8 (≈ 17 µM) | 4 (≈ 8.49 µM) | –

Reference: ChEMBL document CHEMBL5233274, “Current Landscape and Future Perspective of Oxazolidinone Scaffolds Containing Antibacterial Drugs” (J Med Chem, 2021)
